Data published in patent publication US11846630B2, “Coordinately-ordered single cells with individual identities for high-throughput assay” (Northeastern University, priority 2019, dated 2023).

Columns and labels:
OT-1 cells = assay: Microwell ELISA immunoassay of interferon-γ secreted by peptide-stimulated OT-1 cells; type: cell-based; conditions: OVA peptide concentration 0.5, 1, 2, 4, 8 μg/mL; FIG. 12, panel C
Text: Surface of the microwells can be chemically modified with capture agents, such as antibodies, to detect cytokines secreted by T cells during the T cell-cancer cells interaction. […] The cytokine detection is based on ELISA sandwich structure and quantified based on the fluorescence intensity of Avidin Texas red. Due to the existence of BSA on the top layer, the majority of antibodies were only absorbed on the inner surface of the microwells (bottom and inside wall of microwell), which enhanced capturing signals and reduced background. The location of the capture antibody after BSA saturation was indicated using Rhodamine-BSA and FITC-Antibody and shown in FIG. 11, panel B, in which BSA only covered the top layer of microwell and the green fluorescent capture antibody was mainly present inside the microwells after BSA saturation, enhancing the signals from the microwells. The fluorescence images of interferon-γ at two concentrations are shown in FIG. 11, panel C, and the standard curve of fluorescence versus interferon-γ concentration is presented in FIG. 11, panel D. According to the standard curve, imaged-based ELISA using the microwells detected a wide range of the cytokine concentrations from 0.1 ng/mL to 5 ng/mL, and the concentrations determined based on fluorescence intensity ranged from 0.8×10^5 to 2.7×10^5. […]

HeLa cells = assay: ROS assay (CellROX Orange) on coordinated single cell pattern; conditions: 1 μM doxorubicin for 6 hours

SINFEKL [OVA peptide, OVA peptide (SINFEKL) used to stimulate OT-1 cells to secrete cytokines]
intensity of the interferon-γ fluorescence (OT-1 cells): increased

COc1cccc2c1C(=O)c1c(O)c3c(c(O)c1C2=O)C[C@@](O)(C(=O)CO)C[C@@H]3O[C@H]1C[C@H](N)[C@H](O)[C@H](C)O1 [doxorubicin]
ROS orange signal intensity after subsequent X-ray exposure (HeLa cells; then X-ray 10.8 Gy, compared with doxorubicin alone): much higher level of damage than that of doxorubicin alone
ROS orange signal (HeLa cells; identical cell analysis, FIG. 3): increases
